From PMC4150738 (Analytica chimica acta, 2014)
Read-outs that look alike come from different tables or passages of the source.

How the values were obtained:
[1] = Short-term stability in fortified plasma; assay type: physicochemical, human
[2] = tested on: monoamine transporter; conditions: in vitro transporter assays, similar to cocaine; ref 13 (Baumann et al.); cited from earlier work
[3] = ref 24 (Wang et al); cited from earlier work
[4] = cited from earlier work
[5] = 1,000 μg L^−1, room temp, 4°C and −20°C for 1 to 14 days; ref 29 (Johnson et al); cited from earlier work
[6] = ref 24 (Wang et al), cited from earlier work
[7] = for plasma concentration, Without hydrolysis / plasma concentration, Hydrolysis: LOQ 0.25 μg L^−1; for plasma concentration, Hydrolysis: with hydrolysis
[8] = High QC 750 μg L^−1, n=5, vs freshly fortified
[9] = Low QC 0.75 μg L^−1, n=5, vs freshly fortified
[10] = Medium QC 25 μg L^−1, n=5, vs freshly fortified
[11] = rat plasma, 0.5 mg kg-1 MDPV ip, 10 min
[12] = rat plasma, 0.5 mg kg-1 MDPV ip, 20 min
[13] = rat plasma, 0.5 mg kg-1 MDPV ip, 30 min
[14] = rat plasma, 0.5 mg kg-1 MDPV ip, 60 min
[15] = rat plasma, 0.5 mg kg-1 MDPV ip, 120 min
[16] = rat plasma, 0.5 mg kg-1 MDPV ip, 240 min
[17] = rat plasma, 0.5 mg kg-1 MDPV ip, 480 min
[18] = rat plasma, 0.5 mg kg-1 MDPV sc, 10 min
[19] = rat plasma, 0.5 mg kg-1 MDPV sc, 20 min
[20] = rat plasma, 0.5 mg kg-1 MDPV sc, 30 min
[21] = rat plasma, 0.5 mg kg-1 MDPV sc, 60 min
[22] = rat plasma, 0.5 mg kg-1 MDPV sc, 120 min
[23] = rat plasma, 0.5 mg kg-1 MDPV sc, 240 min
[24] = rat plasma, 0.5 mg kg-1 MDPV sc, 480 min

With `CCCC(C(=O)c1ccc2c(c1)OCO2)N1CCCC1` (stereo not shown) [MDPV, 3,4-methylenedioxypyrovalerone, reference compound] the “Stability (% difference) 3 freeze-thaw cycles” value [1, 8] was 1.5 % difference, the “Stability (% difference) 72h at 4°C” value [1, 8] was 3.5 % difference and the “Stability (% difference) 3 freeze-thaw cycles” value [1, 9] was 3.5 % difference. For the same compound, the “Stability (% difference) 72h at 4°C” value [1, 9] was 7.7 % difference, the “Stability (% difference) 3 freeze-thaw cycles” value [1, 10] was −1.1 % difference and the “Stability (% difference) 72h at 4°C” value [1, 10] was 2.2 % difference. The monoamine transporter blockade [2] was “potent monoamine transporter blocker”, the “concentration in plasma, horse-doping” value [3] was 5.8 ng/mL and the “MDPV blood concentrations, human performance cases” value ([4]; 9 human performance cases, ref 26 (Marinetti et al.)) was 6 to 368 µg/L. For the same compound, the “MDPV blood concentrations, postmortem cases” value ([4]; 23 postmortem cases, ref 26 (Marinetti et al.)) was 10 to 640 µg/L, the “serum MDPV concentrations” value ([4]; Finnish drivers stopped for suspicion of driving under the influence of drugs, ref 25 (Kriikku et al.)) was 20 to 8000 µg/L and the “MDPV concentrations in human plasma, in most cases” value [4] was “below 1000 μg L^−1”. The “stability in fortified plasma” value [5] was “stable”, the “stability of MDPV in plasma, time stable” value ([6]; at room temperature) was 27 h and the “stability of MDPV in plasma, time stable” value ([6]; at −20°C) was 600 h. For the same compound, the “stability of MDPV in plasma, freeze-thaw cycles” value [6] was 3 freeze-thaw cycles, the “change of plasma concentration without the deconjugation step (hydrolysis)” value ([7]; rat plasma after 0.5 mg kg-1 MDPV ip or sc, with vs without hydrolysis) was “did not change” and the “plasma concentration, Without hydrolysis” value ([7]; rat plasma, 0.5 mg kg-1 MDPV ip, 0 min (before dosing)) was “<LOQ”. For the same compound, the “plasma concentration, Hydrolysis” value [7, 11] was 8.0 ng/mL, the “plasma concentration, Without hydrolysis” value [7, 11] was 9.4 ng/mL and the “plasma concentration, Hydrolysis” value [7, 12] was 6.6 ng/mL. The “plasma concentration, Without hydrolysis” value [7, 12] was 7.2 ng/mL, the “plasma concentration, Hydrolysis” value [7, 13] was 7.6 ng/mL and the “plasma concentration, Without hydrolysis” value [7, 13] was 8.4 ng/mL. For the same compound, the “plasma concentration, Hydrolysis” value [7, 14] was 3.6 ng/mL, the “plasma concentration, Without hydrolysis” value [7, 14] was 2.9 ng/mL and the “plasma concentration, Hydrolysis” value [7, 15] was 1.8 ng/mL. For the same compound, the “plasma concentration, Without hydrolysis” value [7, 15] was 2.2 ng/mL, the “plasma concentration, Hydrolysis” value [7, 16] was 1.3 ng/mL and the “plasma concentration, Without hydrolysis” value [7, 16] was 0.6 ng/mL. For the same compound, the “plasma concentration, Hydrolysis” value [7, 17] was 0.9 ng/mL, the “plasma concentration, Without hydrolysis” value [7, 17] was 1.2 ng/mL and the “plasma concentration, Without hydrolysis” value ([7]; rat plasma, 0.5 mg kg-1 MDPV sc, 0 min (before dosing)) was “<LOQ”. The “plasma concentration, Hydrolysis” value [7, 18] was 107.5 ng/mL, the “plasma concentration, Without hydrolysis” value [7, 18] was 120.1 ng/mL and the “plasma concentration, Hydrolysis” value [7, 19] was 82.1 ng/mL. The “plasma concentration, Without hydrolysis” value [7, 19] was 92.9 ng/mL, the “plasma concentration, Hydrolysis” value [7, 20] was 51.7 ng/mL and the “plasma concentration, Without hydrolysis” value [7, 20] was 56.6 ng/mL. The “plasma concentration, Hydrolysis” value [7, 21] was 38.4 ng/mL, the “plasma concentration, Without hydrolysis” value [7, 21] was 34 ng/mL and the “plasma concentration, Hydrolysis” value [7, 22] was 9.9 ng/mL. For the same compound, the “plasma concentration, Without hydrolysis” value [7, 22] was 1.5 ng/mL, the “plasma concentration, Hydrolysis” value [7, 23] was 4.8 ng/mL and the “plasma concentration, Without hydrolysis” value [7, 23] was 3.1 ng/mL. The “plasma concentration, Hydrolysis” value [7, 24] was 1.7 ng/mL, the “plasma concentration, Without hydrolysis” value [7, 24] was 1.4 ng/mL and the “plasma concentration range after intraperitoneal dosing” value ([7]; rat plasma, 0.5 mg kg^−1 MDPV intraperitoneal, samples 10-480 min after dosing) was 0.9 to 8.0 ng/mL. The “plasma concentration range after the subcutaneous dose” value ([7]; rat plasma, 0.5 mg kg^−1 MDPV subcutaneous, samples 10-480 min after dosing) was 1.7 to 107.5 ng/mL.
